The test system of one experiment is NF-κB signaling pathway. Kind of experiment: Cell-based dual luciferase NF-κB reporter assay (HEK293 cells, TNF stimulated). The settings on record: Homo sapiens, HEK293. The protocol: Dual-luciferase reporter assay was designed to find inhibitors of HOIP affecting NF-κB signaling pathway. The assay was performed in HEK293 cells which were transfected with plasmids coding for Firefly and NanoLuc luciferases. The NanoLuc luciferase plasmid contains NF-κB response element which determines its expression.
The assay was run following standard dual-luciferase protocols. The assay consists of a few steps: • compounds were dispensed at a concentration range: 100-0.005 μM with a final DMSO concentration of 1% of final volume (25 μL); • cells were stimulated after 30 min with 2.5 ng/mL TNF; and • after 6 h Firefly and NanoLuc luciferase activities are determined according to the procedure described by the manufacturer of Nano-Glo Dual-Luciferase Reporter Assay System.
For orientation: In a reporter assay the amount or activity of a reporter protein is the signal.

Experiment [1] relates to bladder carcinoma RT4 cell line. Kind of experiment: TNF-α-induced cytotoxicity assay (CellTiter-Glo viability). Format: cell-based. The settings on record: Homo sapiens, RT-4, 72 h. On the procedure: A viability assay, using bladder carcinoma RT4 cell line, was used for identifying the potential inhibitory effect of tested compounds on HOIP activity. The viability was determined by CellTiter-Glo Luminescent Cell Viability Assay (G7571, Promega) which measures the ability of generating a luminescent signal proportional to the amount of ATP present in living cells. The assay consists of a few steps: • a) the cells were routinely sub cultivated twice a week with standard complete growth medium composition; • b) cells were preparated for the assay by creating a cell suspension at the density of 0.05 mln cells/mL and dispensed into plates (ViewPlate-384, PerkinElmer) resulting in 1000 cells/well; • c) cells were stimulated with 1.25 ng/mL TNFα and with compounds and incubated for 72 h at 37° C. in the atmosphere with 5% CO2; and • d) for detection cytotoxicity was measured with CellTiter-Glo® Luminescent Cell Viability Assay based on the method described by the manufacturer.
(ATP-based viability assays read luminescence as a measure of living cells.)

The target in experiment [2] is T1, human E3 ubiquitin-protein ligase RNF31 (HOIP) (Homo sapiens, UniProt Q96EP0).
T1 sequence (Q96EP0 695-1072 limits assumed): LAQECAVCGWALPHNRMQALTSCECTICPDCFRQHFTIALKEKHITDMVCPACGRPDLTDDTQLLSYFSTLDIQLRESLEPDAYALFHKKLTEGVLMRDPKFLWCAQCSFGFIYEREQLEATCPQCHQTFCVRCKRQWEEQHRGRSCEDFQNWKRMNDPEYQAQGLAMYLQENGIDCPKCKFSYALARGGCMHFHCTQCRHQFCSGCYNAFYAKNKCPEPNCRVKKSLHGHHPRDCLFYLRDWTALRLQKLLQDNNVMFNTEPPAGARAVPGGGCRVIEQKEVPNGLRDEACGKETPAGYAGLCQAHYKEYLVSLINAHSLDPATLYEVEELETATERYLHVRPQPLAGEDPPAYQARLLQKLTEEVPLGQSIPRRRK
Kind of experiment: Cell-free HTRF-based HOIP inhibition assay. Format: biochemical. On the procedure: This assay was performed in the following steps: • a) synthesis of recombinant fragment of human E3 ubiquitin-protein ligase RNF31 (HOIP), expressed with purity >90% in E. coli system (the protein was prepared as 1 mg/mL stock in a standard formulation); • b) incubation of the compounds in a typical concentration range: 100-0.005 μM, at a final DMSO conc. 1% with a mixture of HOIP and ubiquitin activating enzyme E1 at 25° C., for 1 h at 25° C.; • c) followed by addition of a ubiquitination solution including E2 and substrates (the reaction proceeds for 2.5 h at 25° C.); and • d) HTRF detection was performed using a PHERAstar FSX (BMG Labtech) plate reader (excitation at 337 nm, dual emissions at 665 and 620 nm).
A general note: TR-FRET usually uses a lanthanide donor and a delayed reading to cut background.

SMILES strings stand for the structures.

Broadly, the IC50 is the concentration needed to halve the response being measured. A high value points to weaker potency.

For `O=C(NC/C=C/S(=O)(=O)c1ccc(Br)cc1)c1cc2c([nH]c1=O)CCCC2` [Example 5, N-[(2E)-3-(4-bromobenzenesulfonyl)prop-2-en-1-yl]-2-oxo-1,2,5,6,7,8-hexahydroquinoline-3-carboxamide], the IC50 in the experiment with NF-κB signaling pathway is at most 1000 nM; in experiment [1], at most 1000 nM; in experiment [2], at most 100 nM.
With `N=S(=O)(/C=C/CNC(=O)c1cc2c([nH]c1=O)CCCC2)c1ccc(F)cc1` (stereo not drawn) [Example 6, N-[(2E)-3-[(4-fluorophenyl)(imino)oxo-λ^6-sulfanyl]prop-2-en-1-yl]-2-oxo-1,2,5,6,7,8-hexahydroquinoline-3-carboxamide], the IC50 was at most 10000 nM with NF-κB signaling pathway, at most 1000 nM in experiment [1] and at most 1000 nM in experiment [2].
With `O=C(NC/C=C/S(=O)(=O)c1ccccc1)c1cc2c([nH]c1=O)CCCC2` [Example 7, N-[(2E)-3-(benzenesulfonyl)prop-2-en-1-yl]-2-oxo-1,2,5,6,7,8-hexahydroquinoline-3-carboxamide], the IC50 (in the experiment on NF-κB signaling pathway; in experiment [1]; in experiment [2]) was at most 1000 nM each time.
With `O=C(NC/C=C/S(=O)(=O)c1ccccc1)c1cc2c([nH]c1=O)CCN(Cc1ccccc1)C2` [Example 8, N-[(2E)-3-(benzenesulfonyl)prop-2-en-1-yl]-6-benzyl-2-oxo-1,2,5,6,7,8-hexahydro-1,6-naphthyridine-3-carboxamide], the IC50 (with NF-κB signaling pathway; in experiment [1]; in experiment [2]) was at most 1000 nM in each case.
Take `O=C(NC/C=C\S(=O)(=O)c1ccccc1)c1cc2c([nH]c1=O)CCCC2` [Example 9, N-[(2Z)-3-(benzenesulfonyl)prop-2-en-1-yl]-2-oxo-1,2,5,6,7,8-hexahydroquinoline-3-carboxamide]: the IC50 in the experiment on NF-κB signaling pathway was at most 10000 nM; in experiment [1] it was at most 10000 nM; in experiment [2], at most 1000 nM.
Take `CC(C)(C)OC(=O)N1CCc2[nH]c(=O)c(C(=O)NC/C=C/S(=O)(=O)c3ccccc3)cc2C1` [Example 10, tert-butyl 3-{[(2E)-3-(benzenesulfonyl)prop-2-en-1-yl]carbamoyl}-2-oxo-1,2,5,6,7,8-hexahydro-1,6-naphthyridine-6-carboxylate]: the results for the 50% inhibitory concentration (IC50) (with NF-κB signaling pathway; in experiment [1]; in experiment [2]) were at most 1000 nM, at most 10000 nM and at most 100 nM, respectively.
As for `O=C(NC/C=C/S(=O)(=O)c1ccc(Cl)cn1)c1cc2c([nH]c1=O)CCCC2` [Example 11, N-[(2E)-3-[(5-chloropyridin-2-yl)sulfonyl]prop-2-en-1-yl]-2-oxo-1,2,5,6,7,8-hexahydroquinoline-3-carboxamide], the IC50 in the experiment on NF-κB signaling pathway is at most 1000 nM; in experiment [1], at most 1000 nM; in experiment [2], at most 100 nM.
As to `O=C(NC/C=C/S(=O)(=O)c1ccccc1)c1cc(-c2ccccc2)c[nH]c1=O` [Example 12, N-[(2E)-3-(benzenesulfonyl)prop-2-en-1-yl]-2-oxo-5-phenyl-1,2-dihydropyridine-3-carboxamide], the IC50 in the experiment with NF-κB signaling pathway is at most 10000 nM; in experiment [1], at most 10000 nM; in experiment [2], at most 1000 nM.
With `O=C(NC/C=C/S(=O)(=O)c1ccc(F)cc1)c1cc2c([nH]c1=O)CCCC2` [Example 16, N-[(2E)-3-(4-fluorobenzenesulfonyl)prop-2-en-1-yl]-2-oxo-1,2,5,6,7,8-hexahydroquinoline-3-carboxamide], the half-maximal inhibitory concentration (IC50) is at most 1000 nM in the experiment with NF-κB signaling pathway, at most 1000 nM in experiment [1] and at most 100 nM in experiment [2].
In the case of `COc1ccc(S(=O)(=O)/C=C/CNC(=O)c2cc3c([nH]c2=O)CCCC3)cc1F` [Example 19, N-[(2E)-3-(3-fluoro-4-methoxybenzenesulfonyl)prop-2-en-1-yl]-2-oxo-1,2,5,6,7,8-hexahydroquinoline-3-carboxamide], the 50% inhibitory concentration (IC50) is at most 1000 nM with NF-κB signaling pathway, at most 1000 nM in experiment [1] and at most 100 nM in experiment [2].
For the molecule `O=C(NC/C=C/S(=O)(=O)c1ccc(Cl)cc1)c1cc2c([nH]c1=O)CCCC2` [Example 21, N-[(2E)-3-(4-chlorobenzenesulfonyl)prop-2-en-1-yl]-2-oxo-1,2,5,6,7,8-hexahydroquinoline-3-carboxamide], the IC50 is at most 100 nM in the experiment on NF-κB signaling pathway, at most 1000 nM in experiment [1] and at most 100 nM in experiment [2].
In the case of `CC(C)(C)OC(=O)N1CCc2[nH]c(=O)c(C(=O)NC/C=C/S(=O)(=O)c3ccccc3F)cc2C1` [Example 22, tert-butyl 3-{[(2E)-3-(2-fluorobenzenesulfonyl)prop-2-en-1-yl]carbamoyl}-2-oxo-1,2,5,6,7,8-hexahydro-1,6-naphthyridine-6-carboxylate], the IC50 in the experiment on NF-κB signaling pathway was at most 1000 nM; in experiment [1] it was at most 1000 nM; in experiment [2], at most 100 nM.
As for `O=C(NC/C=C/S(=O)(=O)c1ccccc1F)c1cc2c([nH]c1=O)CCCC2` [Example 24, N-[(2E)-3-(2-fluorobenzenesulfonyl)prop-2-en-1-yl]-2-oxo-1,2,5,6,7,8-hexahydroquinoline-3-carboxamide], the figures for the IC50 (in the experiment on NF-κB signaling pathway; in experiment [1]; in experiment [2]) were at most 1000 nM, at most 1000 nM and at most 100 nM, respectively.
For the molecule `CC(C)(C)OC(=O)N1CCc2[nH]c(=O)c(C(=O)NC/C=C/S(=O)(=O)c3ccc(F)cc3)cc2C1` [Example 25, tert-butyl 3-{[(2E)-3-(4-fluorobenzenesulfonyl)prop-2-en-1-yl]carbamoyl}-2-oxo-1,2,5,6,7,8-hexahydro-1,6-naphthyridine-6-carboxylate], the figures for the IC50 (in the experiment on NF-κB signaling pathway; in experiment [1]; in experiment [2]) were at most 1000 nM, at most 10000 nM and at most 100 nM, respectively.
For `CC(C)(C)c1ccc(S(=O)(=O)/C=C/CNC(=O)c2cc3c([nH]c2=O)CCCC3)cc1` [Example 50, N-[(2E)-3-(4-tert-butylbenzenesulfonyl)prop-2-en-1-yl]-2-oxo-1,2,5,6,7,8-hexahydroquinoline-3-carboxamide], the IC50 (in the experiment with NF-κB signaling pathway; in experiment [2]) was at most 10000 nM each time.
In the case of `COc1ccc(S(=N)(=O)/C=C/CNC(=O)c2cc3c([nH]c2=O)CCCC3)cc1` (stereo not drawn) [Example 57, N-[(2E)-3-[imino(4-methoxyphenyl)oxo-λ^6-sulfanyl]prop-2-en-1-yl]-2-oxo-1,2,5,6,7,8-hexahydroquinoline-3-carboxamide], the IC50 (in the experiment with NF-κB signaling pathway; in experiment [1]) was at most 1000 nM in each case.
`CC(C)(C)c1ccc(S(=N)(=O)/C=C/CNC(=O)c2cc3c([nH]c2=O)CCCC3)cc1` (stereo not drawn) [Example 61, N-[(2E)-3-[(4-tert-butylphenyl)(imino)oxo-λ^6-sulfanyl]prop-2-en-1-yl]-2-oxo-1,2,5,6,7,8-hexahydroquinoline-3-carboxamide]: the IC50 (in the experiment with NF-κB signaling pathway; in experiment [1]) was at most 1000 nM throughout.
As to `CCOc1ccc(S(=N)(=O)/C=C/CNC(=O)c2cc3c([nH]c2=O)CCCC3)cc1` (stereo not drawn) [Example 62, N-[(2E)-3-[(4-ethoxyphenyl)(imino)oxo-λ^6-sulfanyl]prop-2-en-1-yl]-2-oxo-1,2,5,6,7,8-hexahydroquinoline-3-carboxamide], the half-inhibitory concentration (IC50) (with NF-κB signaling pathway; in experiment [1]) was at most 1000 nM throughout.
With `CN(C)c1ccc(S(=N)(=O)/C=C/CNC(=O)c2cc3c([nH]c2=O)CCCC3)cc1` (stereo not drawn) [Example 141, N-[(2E)-3-{[4-(dimethylamino)phenyl](imino)oxo-λ^6-sulfanyl}prop-2-en-1-yl]-2-oxo-1,2,5,6,7,8-hexahydroquinoline-3-carboxamide], the IC50 (in the experiment with NF-κB signaling pathway; in experiment [1]) was at most 1000 nM throughout.
In the case of `COc1ccc(S(=N)(=O)/C=C/CNC(=O)c2cc3c([nH]c2=O)CCC(C(C)C)C3)cc1F` (stereo not drawn) [Example 144, N-[(2E)-3-[(3-fluoro-4-methoxyphenyl)(imino)oxo-λ^6-sulfanyl]prop-2-en-1-yl]-2-oxo-6-(propan-2-yl)-1,2,5,6,7,8-hexahydroquinoline-3-carboxamide], the IC50 (in the experiment with NF-κB signaling pathway; in experiment [1]) was at most 1000 nM in each case.

The record behind these values is patent US20260250250A1, “3-(SULPHONYL OR SULFONIMIDOYL)PROP-2-EN-1-YL]-2-OXO-1,2-DIHYDROPYRIDINE-3-CARBOXAMIDE DERIVATIVES” (Flinder Therapeutics B.V., priority 2022, published 2026).
